For data set [1], the system named is Th17 cell differentiation. Further details: method as in PMID 21499262, PMID 22769242. Conditions: cited from earlier work.
Data set [2] is described as follows: Cell viability (MTT) assay. It counts as cell-based. As to conditions: human, wild type Jurkat cells, highest concentration 5 μM. Here is the method: The cell viabilities of Jurkat cells (wild type) after treatment with chemicals were assessed by MTT technique. In brief, wild type Jurkat cells were seeded (2x10^4) and incubated with the compounds by 5-fold gradient concentrations, as described above. 48h treatment later, MTT (Dimethylthiazolyl-2-5-diphenyltetrazolium bromide) dye solution (Sigma, USA) was added into the 96-well plate and incubated at 37°C for 4 h, MTT is cleaved by live cells to a colored formazan product. After centrifugation (1500rpm, 5min) the supernatant was discarded. 100μl DMSO was added to dissolve the formazan product and gently shaken for 10min. Absorbance at 570 nm wavelength was recorded using a Thermo Scientific Multiskan FC (Thermo Scientific, USA). Each treatment was repeated in quadruplicate. Cell viabilities were defined relative to control cells (DMSO treated). The half-maximal cytotoxic concentration (CC50) for each compound was calculated from these dose-response curves with the aid of Graphpad Prism software (GraphPad Software, CA).

Data set [3] concerns IL-17A secretion. In words: IL-17A secretion by ELISA under Th17 polarizing conditions. It counts as cell-based, mouse. As to conditions: 5 μM; for IL-17A concentration in supernatant / reduction of IL-17A secretion vs vehicle-treated control cells: Th17 polarizing conditions, ELISA. The text has this:
(§1) CD4^+CD25^- T cells were isolated from spleens of 12-week-old C57BL/6 as follows: single-cell suspensions were made by crushing the spleen through a cell strainer, and red blood cells (RBCs) were lysed with an RBC lysis buffer. CD4^+ T cells were then purified using MACS magnetic cell column with a CD4^+ T cell isolation kit (Miltenyi, Biotec) according to the manufacturer’s protocol. Isolated cells were fluorescently stained with PE-conjugated anti-mouse TCR-βAb, PE-Cy7-conjugated anti-mouse CD4 Ab and APC-conjugated anti-mouse CD25 Ab (BD Bioscience, USA) and analyzed by flow cytometry.
(§2) The isolated CD4^+CD25^- T cells (3x10^6) were cultured under Th17 conditions. […] Specifically, the isolated CD4^+CD25^- T cells (3x10^6) were stimulated (in 6-well plates) with 5 μg/ml plate-bound anti-CD3e antibody (eBioscience, USA) and 2 μg/ml soluble anti-CD28 Ab (eBioscience, USA) for 24 hours. Then the activated cells were collected, resuspended and seeded into 96-well round-bottom plates (2x10^4) for Th17 differentiation in the presence of 5 ng/ml recombinant human TGF-β, 30 ng/ml recombinant mouse IL-6 (R&D systems) and DMSO as control or hit compounds with a final concentration of 5 μM. The cells were cultured for 2 days. Later, fresh medium was added (100ul/well) containing recombinant human TGF-β, recombinant mouse IL-6 (R&D systems) and the hit compounds as previously introduced for culturing another 2 days.
After 5 days of culture, the concentration of IL-17A in the supernatant was determined by an ELISA kit according to the manufacturer’s protocol (CUSABIO Systems, China).
Background: In an ELISA, binding on a coated surface is turned into a signal by an enzyme label.

The target in data set [4] is T1, RORγt-LBD (Homo sapiens, UniProt P51449).
T1 sequence (P51449 269-508 limits assumed): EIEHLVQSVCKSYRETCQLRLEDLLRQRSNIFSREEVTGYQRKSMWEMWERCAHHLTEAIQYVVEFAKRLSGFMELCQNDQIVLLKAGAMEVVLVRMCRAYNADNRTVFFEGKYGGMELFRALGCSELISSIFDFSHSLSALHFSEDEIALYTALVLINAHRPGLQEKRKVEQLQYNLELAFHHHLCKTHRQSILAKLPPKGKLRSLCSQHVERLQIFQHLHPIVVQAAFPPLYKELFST
In words: Inhibition of RORγt activity in RORγt+-293T stable reporter cells (luciferase). It counts as cell-based. The source says:
(§3) The pGL4.31[luc2P/GAL4UAS/Hygro] reporter plasmid and the pBIND vector were purchased from Promega (USA). The fragment of IRES-GFP was first inserted into NotI sites of pBIND. Human RORγtLBD was amplified from cDNA of human PBMC (cDNA is provided by Dr. Hui Zhang) and then cloned into the pBIND-IRES-GFP to generate the fusion sequence Gal4DBD-RORγtLBD-IRES-GFP. The primers that were used to construct the pBIND-Gal4DBD-RORγtLBD-IRES-GFP plasmid are shown as follows: RORγtLBD forward 5’- […]-3’, reverse 5’- […] -3’.
The 4 μg pGL4.31 reporter plasmids (promega, USA) were transfected into 293T cells (1 x 10^6) with Lipofectamin^TM 2000 (Invitrogen, USA) according to the manufacturer’s instructions. The transfected cells were then selected in medium containing 100 μg/mL hygromycin B (Roche, USA) for 3 weeks to obtain a stable clone which express pGL4.31 reporter gene. Then 4 μg pBIND-RORγtLBD-IRES-GFP plasmids were also transfected into the stable clone. The second transfected cells were sorted by Green Fluorescent Protein (GFP). Through this process, we obtained the 293T-RORγt stable reporter cell line. GFP^+-293T stable cell purity was determined >96% by flow cytometry analysis, which yielded a RORγt^+-293T (RORγt-LBD positive 293T cells) stable reporter cell line, and GFP^--293T stable cells were also sorted and used as a RORγt negative control cell line (Fig 1).
RORγt^+-293T stable cells (1x10^4) were seeded into 96-well plates (Corning, Costar)and incubated in DMEM complete medium overnight. Then the candidates were added with a final concentration of 5 μM. Negative control (DMSO) and positive control were carried on as HTS. 6 hours later, the cells were then lysed and assayed for luciferase activity (Promega, USA) following the manufacturer’s instructions.

In data set [5] the test system is Th17 cell differentiation. In words: Th17 differentiation of mouse CD4+CD25- T cells, qPCR of Rorγt, Il17a, Il17f. As to conditions: 5 μM, normalized to Gapdh; for attenuation of Il17a mRNA expression vs vehicle-treated control: Th17 polarizing conditions (TGF-β, IL-6); for suppression of Il17f mRNA expression: Th17 polarizing conditions. It counts as cell-based.
From the text: as §1, §2
After 5 days of culture, splenocyte total RNA was extracted with TRIzol (Invitrogen, USA). Then about 1000ng total RNA was added to a 20 μL reaction volume for reverse transcriptions by the GoScript Reverse Transcription System (Promega, USA) according to the manufacturer’s instructions, followed by real-time quantification using GoTaq qPCR Master Mix (Promega, USA). Gene expression of mouse Rorγt, Il17a and Il17f was normalized to the expression of Gapdh. The following primer sequences were used: Rorc forward 5’-TGTAATGTGG CCTACTCCTGCA-3’, reverse 5’-[…]-3’; Il17a forward 5’-[…]-3’, reverse 5’-[…]-3’; Il17f forward 5’-[…]-3’, reverse 5’- […]-3’; Gapdh forward 5’-[…]-3’, reverse 5’-[…]-3’.
In general terms: In qPCR the cycle at which signal appears reflects the starting amount.

Data set [6] addresses T1, RORγt-LBD. The data set can be described thus: Gal4-RORγtLBD luciferase reporter assay in RORγt+-Jurkat stable cells (HTS / EC50 assay). Also on record: Human RORγtLBD was amplified from cDNA of human PBMC; expressed in transfected cells; host or cells: Jurkat cells stably carrying pGL4.31[luc2P/GAL4UAS/Hygro], GFP-sorted. It counts as cell-based. Conditions: for EC50: 5 μM to 8 nM 5-fold gradient, read-out: EC50 (anti-RORγt activity, relative luciferase activity).
From the text: as §3
(§4) Similar to the above procedure, to obtain the needed Jurkat-RORγt reporter cell lines, a total of 1x10^7 Jurkat cells were transfected with 20 μg pGL4.31 reporter plasmids by electroporation (Lonza, Swiss) according to the manufacturer’s instructions. The transfected Jurkat cells were also selected in RPMI 1640 medium containing 200 μg/mL hygromycin B. And then the 20 μg PBIND-RORγtLBD-IRES-GFP plasmids were also transfected into the stable Jurkat clone and were sorted by GFP. GFP^+-Jurkat stable cell purity was determined >96% by flow cytometry analysis and GFP^--Jurkat stable cells were also sorted (Fig 1).
RORγt^+-Jurkat stable cells (2x10^4) were seeded into 96-well round-bottom plates (Corning, Costar)and incubated in RPMI1640 complete medium overnight. At initial round screening, drug-like set compounds (Enamine, Monmouth Jct, NJ) were added using a Tecan Freedom EVO150 (Tecan, Männedorf, Schweiz) with a final concentration of 50 μM, which used by other research. 50 μM concentration is pretty high in drug screening and always raises many false positive. To reduce these false positive, we reduced the compounds concentration to 5 μM in the second round validation screening. Column 12 of each plate received only DMSO instead of any compounds as a negative control. In addition, column 1 of each plate was treated with 100 nM PMA (Sigma-Aldrich, USA) as a positive control. 6 hours later, the cells were then lysed and assayed for luciferase activity (Promega, USA) following the manufacturer’s instructions.
Jurkat-RORγt^+ stable cells were seeded into 96-well round-bottom plates (2x10^4) overnight and incubated with the compounds by 5-fold gradient, with final concentrations from 5μM to 8nM. 6h later, the cells were then lysed and assayed for luciferase activity (Promega, USA) following the manufacturer’s instructions. The values of half-maximal effective concentration (EC50) were determined by plotting the logarithm of compound concentration versus relative luciferase activity.
The EC50 and CC50 of all three compounds were determined to further identify the effects of these three tetraazacyclic compounds. […] The CC50 values of each compound in Jurkat cells were also determined as previously described in the methods section.
Background: Reporter assays use an easily measured gene product as a stand-in for the process of interest.

Data set [7] relates to RORγt--Jurkat cells. In words: Luciferase reporter activity in RORγt--Jurkat (RORγt-LBD negative) control cells. Conditions: different concentrations of PMA (100 nM, 10 nM, 1 nM), 4 and 6 hr. It counts as cell-based. Here is the method:
as §4
RORγt^+-Jurkat (RORγt-LBD positive Jurkat cells) and RORγt^--Jurkat (RORγt-LBD negative Jurkat cells) stable cells (1x10^5) were seeded onto separate 12-well plates and cultured overnight. Cells were then stimulated with different concentrations of PMA (100 nM, 10 nM, 1 nM) or DMSO (negative control) for 4, 6, and 8 hr. […] Luciferase activity was highest in cells cultured with 100nM PMA, it was at approximately 40-fold over the DMSO control (Fig 2A and 2B). When RORγt^+-Jurkat cells were cultured for 6 hr, the luciferase activity was nearly identical across the concentrations and increased from control by about 40-fold at various concentrations (Fig 2D and 2E). […]

“Also recorded” adds a separate entry of the source. A value given as a limit tells only on which side of the number the result lay.

For `CC(=O)Nc1nc(C)c(S(=O)(=O)Nc2ccc(C(O)(C(F)(F)F)C(F)(F)F)cc2)s1` [SR1001], the “activity in Th17 cell differentiation study” value in data set [1] is “relatively weak activity”.
As to `Cc1cccc(C)c1-n1nnnc1Sc1ncnc2ccsc12` [compound 14, 4-[1-(2,6-dimethylphenyl)tetrazol-5-yl]sulfanylthieno[3,2-d]pyrimidine], the CC50 (usually the concentration that lowers cell viability or growth by half) at 48 h in data set [2] was above 5 µM. For the same compound, in data set [3], the “IL-17A concentration in supernatant” value turned out to be 88 pg/mL and the “reduction of IL-17A secretion vs vehicle-treated control cells” value (“reduction of IL-17A secretion” for short) is given as 74%. In addition, the “inhibition of reporter activity in RORγt+-293T cells” value in data set [4] (5 μM, 6 h, vs vehicle control) was “significantly less inhibition”. For the same compound, in data set [5], the “attenuation of Il17a mRNA expression vs vehicle-treated control” value (“attenuation … vs vehicle-treated control” below) is given as 65%-80% and the “suppression of Il17f mRNA expression” value is recorded as “did not significantly inhibited; also recorded: no significant inhibition”. Further, the EC50 (commonly the midpoint of the concentration-response curve) in data set [6] (RORγt+-Jurkat cells, 6 hr) was found to be 0.67 µM.
As to `CCN(CC)Cc1nc(Sc2nnnn2-c2ccccc2)c2c(C)c(C)sc2n1` [compound 7, N-[[5,6-dimethyl-4-(1-phenyltetrazol-5-yl)sulfanylthieno[3,2-e]pyrimidin-2-yl]methyl]-N-ethylethanamine], the CC50 at 48 h in data set [2] stood at 1.5 µM. For the same compound, in data set [3], the “IL-17A concentration in supernatant” value came out at 196 pg/mL and the “reduction of IL-17A secretion” value was 47%. Besides, in data set [3] (mouse Th17 differentiation, for 11 and 14 both mRNA expression and protein secretion), the “suppression / reduction in IL-17A production (Discussion summary)” value was ~ 50%. The inhibition (in general, how much of the control response was suppressed) at 5 µM in data set [4] (5 μM, 6 h, vs vehicle control) stood at 95%. For the same compound, in data set [5], the “attenuation … vs vehicle-treated control” value was 65%-80% and the “suppression of Il17f mRNA expression” value came out at 87%. Moreover, in data set [6] (5 μM, 6 hr, vs vehicle control), at 5 µM the inhibition was 75%. For the same compound, the EC50 in data set [6] (RORγt+-Jurkat cells, 6 hr) is 2.6 µM.
Compound `Cc1ccccc1-n1nnnc1Sc1ccnc2cc(Cl)ccc12` [compound 11, 7-chloro-4-[1-(2-methylphenyl)tetrazol-5-yl]sulfanylquinoline] came in with a CC50 at 48 h in data set [2] above 5 µM. Further, in data set [3], the “IL-17A concentration in supernatant” value is reported as 136 pg/mL and the “reduction of IL-17A secretion” value was 63%. The “inhibition of reporter activity in RORγt+-293T cells” value in data set [4] (5 μM, 6 h, vs vehicle control) is “significantly less inhibition”. Moreover, in data set [5], the “attenuation … vs vehicle-treated control” value is 65%-80% and the “suppression of Il17f mRNA expression” value was 90%. In addition, the EC50 in data set [6] (RORγt+-Jurkat cells, 6 hr) is 0.25 µM.
On to `CCCCCCCCCCCCCC(=O)O[C@@H]1[C@@H](C)[C@@]2(O)[C@@H](C=C(CO)C[C@]3(O)C(=O)C(C)=C[C@@H]23)[C@@H]2C(C)(C)[C@]12OC(C)=O` [PMA, phorbol-12-myristate-13-acetate, reference compound], for which the “greatest increase in luciferase activity vs DMSO” value in data set [4] (RORγt+-293T cells, 100 nM PMA, 4 hr and 6 hr) is given as 4–6 folds. Further, in data set [7], the “luciferase activity in RORγt--Jurkat cells” value is listed as “no significant increase”. The “luciferase activity, fold over DMSO control” value in data set [6] (RORγt+-Jurkat cells, 100 nM PMA, 4 hr) was “approximately 40 fold”. Also, the “luciferase activity, fold increase from control” value in data set [6] (RORγt+-Jurkat cells, 100 nM, 10 nM, 1 nM PMA, 6 hr) is on record as “approximately 40 fold”.

Values taken from PMC4569406, “Identification of Tetraazacyclic Compounds as Novel Potent Inhibitors Antagonizing RORγt Activity and Suppressing Th17 Cell Differentiation” (PLoS ONE, 2015).
